In PubChem BioAssay AID977613 (Broad Institute, 2014) one finds active concentration data, which are given here for 46 compounds.

Calls of active or inactive are those of the source. No rule for the calls is given here. Bounds are passed on as bounds.

The test system of this assay is Broad 7084-01 inhibitor HTS, set 2. Kind of assay: single-concentration hits, screen 7084 set 2 (AID 977613).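 Also: host cells are infected with parasite promastigotes that become internalized.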

Take `OC[C@@H]1[C@H](c2ccccc2)C2(CN(Cc3nccs3)C2)N1Cc1cccnc1`: the active concentration was > 10 µM (inactive).

For `CCCN1[C@H](C(=O)Nc2nccs2)[C@@H](CO)[C@@H]2Cn3c(ccc(-c4ccccc4OC)c3=O)[C@@H]21`, the active concentration was > 10 µM (inactive).

On to `O=C(C1CCC1)N1CC2(C1)[C@@H](c1ccccc1)[C@@H](CO)N2C(=O)c1ccccn1`, for which the active concentration was less than 10 µM.

For the compound `N#C[C@H]1[C@@H](c2ccccc2C2=CCCCC2)[C@H](CO)N1C(=O)c1cccc(F)c1`, the active concentration was > 10 µM (inactive).

With `N#C[C@@H]1[C@H](c2ccccc2-c2ccccc2)[C@@H](CO)N1C(=O)Cc1ccncc1`, the active concentration was > 10 µM (inactive).

Consider `Cc1ccccc1-c1ccc([C@@H]2[C@@H](CO)N3CCCCN(S(=O)(=O)Cc4ccccc4)C[C@H]23)cc1`, for which the active concentration was > 10 µM (inactive).

Turning to `CC(C)NC(=O)N1CC[C@@H]2[C@H]1c1cc(Br)ccc1N(C)[C@@H]2CO`, the active concentration is > 10 µM (inactive).

On to `O=C(C[C@@H]1CC[C@H]2[C@@H](COC[C@H](O)CN2Cc2nccs2)O1)NCc1ccccc1`, for which the active concentration was > 10 µM (inactive).

With `COc1cc(CN2CC3(CCN(S(=O)(=O)c4cn(C)cn4)CC3)c3c(n(C)c4cc(OC)ccc34)[C@H]2CO)cc(OC)c1`, the active concentration was > 10 µM (inactive).

In the case of `Cn1cnc(CCNC(=O)C[C@@H]2CC[C@H]3[C@@H](COC[C@@H](O)CN3C(=O)C3CC3)O2)c1`, the active concentration is > 10 µM (inactive).

With `O=C(c1cccnc1)N1CC[C@@H]2[C@@H](CO)Nc3ccc(C4=CCCCC4)cc3[C@@H]21`, the active concentration was > 10 µM (inactive).

For the compound `CC(C)CC#Cc1ccc([C@H]2[C@@H](CO)N3C(=O)CN(C(=O)c4ccccn4)C[C@@H]23)cc1`, the active concentration was > 10 µM (inactive).

Consider `O=C(C[C@@H]1CC[C@H]2[C@@H](COC[C@@H](O)CN2CC2CC2)O1)NCC1CC1`, for which the active concentration is > 10 µM (inactive).

In the case of `CN1C(=O)c2cc(NC(=O)Nc3ccccc3Cl)ccc2OC[C@H]2O[C@@H](CC(=O)NCCCN3CCOCC3)CC[C@H]21`, the active concentration is > 10 µM (inactive).

`O=C(Cc1ccccc1)N1C[C@@H]2[C@H](c3ccccc31)[C@@H](CO)N2C(=O)c1cccc(F)c1`: the active concentration was > 10 µM (inactive).

`Cc1cccc(S(=O)(=O)N2C[C@@H](O)COC[C@@H]3O[C@H](CC(=O)Nc4ccccc4)CC[C@H]32)c1`: the active concentration is > 10 µM (inactive).

Take `O=C(C[C@@H]1CC[C@H]2[C@@H](COC[C@H](O)CN2S(=O)(=O)c2ccccc2)O1)Nc1ccccc1`: the active concentration was > 10 µM (inactive).

As for `O=C1CN(S(=O)(=O)Cc2ccccc2)C[C@@H]2[C@@H](c3ccc(C#Cc4ccccc4)cc3)[C@@H](CO)N12`, the active concentration was > 10 µM (inactive).

Regarding `COc1ccccc1C(=O)N1C[C@H]2[C@@H](c3ccccc31)[C@@H](CO)N2C(=O)Cc1cccnc1`, the active concentration is > 10 µM (inactive).

As to `COc1ccc(-c2ccccc2[C@H]2[C@@H](C#N)N(C(=O)NC3CCCCC3)[C@H]2CO)cc1`, the active concentration was > 10 µM (inactive).

On to `C/C=C/c1ccc([C@H]2[C@@H](CO)N(C(C)=O)C23CN(C(=O)c2ccc(F)cc2)C3)cc1`, for which the active concentration was > 10 µM (inactive).

As to `CCN1CC(=O)N2[C@H](CO)[C@@H](c3ccc(Br)cc3)[C@H]2C1`, the active concentration was > 10 µM (inactive).

With `C[C@H](O)C#Cc1ccc([C@H]2[C@@H](CO)N3CCCCN(C(=O)c4ccc5c(c4)OCO5)C[C@@H]23)cc1`, the active concentration is > 10 µM (inactive).

In the case of `CCCNC(=O)N1CC(=O)N2[C@H](C1)[C@H](c1ccc(-c3ccc(F)cc3)cc1)[C@@H]2CO`, the active concentration was > 10 µM (inactive).

On to `O=C(c1cccnc1)N1CC2(C1)[C@H](c1ccccc1)[C@@H](CO)N2Cc1ccc(Cl)cc1`, for which the active concentration is > 10 µM (inactive).

`CN1C(=O)c2cc(NC(=O)C3CCOCC3)ccc2OC[C@H]2O[C@@H](CC(=O)NCCc3ccncc3)CC[C@H]21`: the active concentration was > 10 µM (inactive).

Turning to `COc1ccccc1CN1[C@H](CO)[C@@H]2c3ccccc3N(C(=O)c3cccnc3)C[C@@H]21`, the active concentration was > 10 µM (inactive).

With `CC(C)C#Cc1ccc([C@H]2[C@@H](CO)N3C(=O)CN(C(=O)Cc4ccccc4)C[C@@H]23)cc1`, the active concentration was > 10 µM (inactive).

For the compound `O=C(NC1CCCC1)N1CCCCN2[C@H](C1)[C@@H](c1ccc(-c3cccnc3)cc1)[C@@H]2CO`, the active concentration is > 10 µM (inactive).

As to `O=C(Nc1ccccc1F)N1CC(=O)N2[C@H](C1)[C@H](c1ccc(-c3cccnc3)cc1)[C@@H]2CO`, the active concentration is > 10 µM (inactive).

Consider `CC(C)C#Cc1ccc([C@@H]2[C@@H](CO)N3C(=O)CN(C(=O)c4ccc5c(c4)OCO5)C[C@H]23)cc1`, for which the active concentration was > 10 µM (inactive).

`O=C(Nc1ccccc1F)N1CC(=O)N2[C@H](CO)[C@@H](c3ccc(-c4cccnc4)cc3)[C@@H]2C1`: the active concentration is > 10 µM (inactive).

In the case of `O=C(CC1CC1)N1CC(=O)N2[C@H](CO)[C@H](c3ccc(C#Cc4cccc(F)c4)cc3)[C@H]2C1`, the active concentration is > 10 µM (inactive).

For the compound `COc1ccccc1NC(=O)N1CC(=O)N2[C@H](CO)[C@@H](c3ccc(-c4cccc(C)c4)cc3)[C@@H]2C1`, the active concentration was > 10 µM (inactive).

Regarding `O=S(=O)(c1ccccc1F)N1CC[C@@H]2[C@H]1c1cc(-c3ccccc3F)ccc1N[C@@H]2CO`, the active concentration was > 10 µM (inactive).

Consider `O=C(C1CCOCC1)N1CC(=O)N2[C@@H](CO)[C@@H](c3ccc(-c4cccnc4)cc3)[C@@H]2C1`, for which the active concentration is > 10 µM (inactive).

Turning to `CN(C)C(=O)C[C@@H]1CC[C@@H]2[C@H](COC[C@@H](O)CN2CC2CC2)O1`, the active concentration was > 10 µM (inactive).

As to `Cc1ccccc1-c1ccccc1[C@@H]1[C@@H](C#N)N(C(=O)c2cccc(F)c2)[C@H]1CO`, the active concentration is > 10 µM (inactive).

Consider `CC(=O)N1CCCCN2[C@@H](CO)[C@@H](c3ccc(-c4ccccc4)cc3)[C@@H]2C1`, for which the active concentration was > 10 µM (inactive).

Consider `O=C(C[C@@H]1CC[C@@H]2[C@H](COC[C@H](O)CN2CC2CCOCC2)O1)NCC1CCCCC1`, for which the active concentration was > 10 µM (inactive).

For the compound `CS(=O)(=O)N1[C@H](CO)[C@@H](c2ccccc2)C12CN(Cc1ccccn1)C2`, the active concentration was > 10 µM (inactive).

`COc1cccc(-c2ccc([C@H]3[C@H]4CNCC(=O)N4[C@H]3CO)cc2)c1`: the active concentration was > 10 µM (inactive).

For `O=C(C[C@@H]1CC[C@@H]2[C@H](COC[C@H](O)CN2S(=O)(=O)c2ccccc2)O1)N[C@H]1CCN(Cc2ccccc2)C1`, the active concentration was > 10 µM (inactive).

In the case of `O=C(C[C@H]1CC[C@@H]2[C@H](COC[C@H](O)CN2C(=O)c2ccccc2F)O1)NCc1ccccc1`, the active concentration was > 10 µM (inactive).

Take `C/C=C/c1ccc([C@@H]2[C@H](CO)N3C(=O)CN(Cc4ccc(F)cc4)C[C@@H]23)cc1`: the active concentration is > 10 µM (inactive).

For `CN1CCCCN2[C@H](CO)[C@H](c3ccc(-c4ccc(F)cc4)cc3)[C@@H]2C1`, the active concentration is > 10 µM (inactive).
